Assay results: patent US20240158446A1, “CYCLIC COMPOUND HAVING SELECTIVE INHIBITORY ACTION ON KRAS OVER HRAS AND NRAS” (CHUGAI SEIYAKU KABUSHIKI KAISHA, priority 2021, published 2024)
Read-outs that look alike come from different tables or passages of the source. Where a SMILES comes first, the peptide text is derived from it. Bridges are numbered along the chain shown (N, C = ends). [ ]: non-standard residue; d: D form. hPhe(3-Cl-4-CF3) = N[C@@H](CCc1ccc(C(F)(F)F)c(Cl)c1)C(=O)O; NPrPhe(4-CF3) = CCCN[C@@H](Cc1ccc(C(F)(F)F)cc1)C(=O)O; NMeGly(cPent) = CN[C@H](C(=O)O)C1CCCC1; Pro(4,4-F2) = O=C(O)[C@@H]1CC(F)(F)CN1; NMeD = CN[C@@H](CC(=O)O)C(=O)O; NMeL = CN[C@@H](CC(C)C)C(=O)O; Ac5c = NC1(C(=O)O)CCCC1; Sar = CNCC(=O)O

What was measured:
[1] = molecular target: GDP-bound NRAS wild-type protein (Homo sapiens, UniProt P01111); assay: Binding to NRAS by surface plasmon resonance (SPR), Single Cycle Kinetics; conditions: for NRAS/KRAS (ratio of KD value for NRAS to KD value for KRAS) / NRAS/KRAS (ratio of KD value with respect to NRAS to KD value with respect to KRAS): SPR, GDP-bound NRAS wild-type protein vs GDP-bound KRAS wild-type protein; for NRAS/KRAS (ratio of KD value with respect to GDP-bound NRAS wild-type protein to KD value with respect to KRAS): SPR KD ratio NRAS/KRAS, class symbols
GDP-bound NRAS wild-type protein, sequence (P01111 whole entry): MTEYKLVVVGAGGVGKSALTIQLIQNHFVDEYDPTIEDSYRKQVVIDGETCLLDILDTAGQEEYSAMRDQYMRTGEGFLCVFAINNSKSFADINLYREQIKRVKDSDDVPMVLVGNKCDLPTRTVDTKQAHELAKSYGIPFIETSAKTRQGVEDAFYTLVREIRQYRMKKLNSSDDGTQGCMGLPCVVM

[2] = molecular target: GDP-bound HRAS wild-type protein (Homo sapiens, UniProt P01112); assay: Binding to HRAS by surface plasmon resonance (SPR), Single Cycle Kinetics; conditions: for HRAS/KRAS (ratio of KD value for HRAS to KD value for KRAS) / HRAS/KRAS (ratio of KD value with respect to HRAS to KD value with respect to KRAS): SPR, GDP-bound HRAS wild-type protein vs GDP-bound KRAS wild-type protein; for HRAS/KRAS (ratio of KD value with respect to GDP-bound HRAS wild-type protein to KD value with respect to KRAS): SPR KD ratio HRAS/KRAS, class symbols
GDP-bound HRAS wild-type protein, sequence (P01112 whole entry): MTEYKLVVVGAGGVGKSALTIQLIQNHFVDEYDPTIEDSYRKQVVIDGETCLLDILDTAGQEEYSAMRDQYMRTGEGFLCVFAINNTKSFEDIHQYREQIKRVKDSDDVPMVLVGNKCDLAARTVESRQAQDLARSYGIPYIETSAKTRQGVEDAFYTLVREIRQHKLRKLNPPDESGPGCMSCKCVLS

[3] = molecular target: GDP-bound KRAS wild-type protein (Homo sapiens, UniProt P01116); assay: Binding to KRAS by surface plasmon resonance (SPR), Single Cycle Kinetics; conditions: GDP-bound KRAS wild-type protein, read-out: KRAS KD
GDP-bound KRAS wild-type protein, sequence (P01116 whole entry): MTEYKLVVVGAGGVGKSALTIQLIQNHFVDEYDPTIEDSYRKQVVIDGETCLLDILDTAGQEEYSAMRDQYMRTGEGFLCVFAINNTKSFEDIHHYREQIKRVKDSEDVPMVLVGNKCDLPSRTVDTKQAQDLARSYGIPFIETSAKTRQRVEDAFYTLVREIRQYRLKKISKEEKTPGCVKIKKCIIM

[4] = SPR Single Cycle Kinetics, 1:1 binding model
[5] = SPR, Single Cycle Kinetics, 1:1 binding model

With `CC[C@H](C)[C@@H]1NC(=O)[C@H](CC)N(C)C(=O)C[C@@H](C(=O)N(C)C)N(C)C(=O)[C@H](C2CCCC2)N(C)C(=O)C2(CCC2)NC(=O)[C@@H]2C[C@H](OC)CN2C(=O)[C@H](CCc2cc(F)c(C(F)(F)F)c(F)c2)NC(=O)CN(C)C(=O)[C@H](Cc2ccc(C(F)(F)F)cc2)N2CC/C=C\C[C@@H](C2=O)N(C)C(=O)CN(C)C1=O` [PP1128, (2S,8S,12S,14S,20S,23S,27S,30S,36S,38Z)-20-cyclopentyl-8-[2-[3,5-difluoro-4-(trifluoromethyl)phenyl]ethyl]-27-ethyl-12-methoxy-N,N,4,19,22,26,32,35-octamethyl-30-[(1S)-1-methylpropyl]-3,6,9,15,18,21,25,28,31,34,42-undecaoxo-2-[[4-(trifluoromethyl)phenyl]methyl]spiro[1,4,7,10,16,19,22,26,29,32,35-undecazatricyclo[34.5.1.0^10,14]dotetracont-38-ene-17,1′-cyclobutane]-23-carboxamide] the “NRAS/KRAS (ratio of KD value for NRAS to KD value for KRAS)” value [1] was “AA (a compound having 20 or more is denoted as AA)”, the “HRAS/KRAS (ratio of KD value for HRAS to KD value for KRAS)” value [2] was “A (a compound having 10 or more and less than 20 is denoted as A)” and the Kd ([3]; SPR, Single Cycle Kinetics) was 0.12 nM.

`CCCN(C)C(=O)[C@@H]1CC(=O)N(C)[C@@H](CC)C(=O)N[C@@H]([C@@H](C)CC)C(=O)N(C)CC(=O)N(C)[C@H]2C/C=C\CCN(C2=O)[C@@H](Cc2ccc(C(F)(F)F)cc2)C(=O)N(C)CC(=O)N[C@@H](CCc2cc(F)c(C(F)(F)F)c(F)c2)C(=O)N2C[C@H](OCC3CC3)C[C@H]2C(=O)NC2(CCC2)C(=O)N(C)[C@@H](C2CCCC2)C(=O)N1C` [PP2913] was tested, and the “NRAS/KRAS (ratio of KD value with respect to GDP-bound NRAS wild-type protein to KD value with respect to KRAS)” value [1] was “A (a compound having 10 or more and less than 20 is denoted as A)”, the “HRAS/KRAS (ratio of KD value with respect to GDP-bound HRAS wild-type protein to KD value with respect to KRAS)” value [2] was “A (a compound having 10 or more and less than 20 is denoted as A)” and the Kd [3, 4] was 0.17 nM.

For `C#CC[C@H]1C(=O)N[C@@H]([C@@H](C)CC)C(=O)N(C)CC(=O)N(C)[C@H]2C/C=C\CCN(C2=O)[C@@H](Cc2ccc(C(F)(F)F)cc2)C(=O)N(C)CC(=O)N[C@@H](CCc2ccc(C(F)(F)F)c(OC)c2)C(=O)N2C[C@H](OCC)C[C@H]2C(=O)NC2(CCC2)C(=O)N(C)[C@@H](C2CCCC2)C(=O)N(C)[C@H](C(=O)N(C)CCC)CC(=O)N1C` [PP2059], the “NRAS/KRAS (ratio of KD value for NRAS to KD value for KRAS)” value [1] was “A (a compound having 10 or more and less than 20 is denoted as A)”, the “HRAS/KRAS (ratio of KD value for HRAS to KD value for KRAS)” value [2] was “A (a compound having 10 or more and less than 20 is denoted as A)” and the Kd ([3]; SPR, Single Cycle Kinetics) was 0.093 nM.

In the case of `CCCN1C(=O)CN(C)C(=O)CN(C)C(=O)[C@H]([C@@H](C)CC)NC(=O)[C@H](CC(C)C)N(C)C(=O)C[C@@H](C(=O)N(C)C)N(C)C(=O)[C@H](C2CCCC2)N(C)C(=O)C2(CCCC2)NC(=O)[C@@H]2CC(F)(F)CN2C(=O)[C@H](CCc2ccc(C(F)(F)F)c(Cl)c2)NC(=O)CN(C)C(=O)[C@@H]1Cc1ccc(C(F)(F)F)cc1` [PP0413] ([NMeL]I[Sar][Sar][NPrPhe(4-CF3)][Sar][hPhe(3-Cl-4-CF3)][Pro(4,4-F2)][Ac5c][NMeGly(cPent)][NMeD]-NMe2; lactam N-11), the “NRAS/KRAS (ratio of KD value with respect to NRAS to KD value with respect to KRAS)” value [1] is reported as “C (A compound having a KD ratio of 0.1 or more and less than 3 is denoted as C)”, the “HRAS/KRAS (ratio of KD value with respect to HRAS to KD value with respect to KRAS)” value [2] is reported as “C (A compound having a KD ratio of 0.1 or more and less than 3 is denoted as C)” and the Kd [3, 4] is reported as 0.049 nM.

With `CCO[C@@H]1C[C@H]2C(=O)NC3(CCC3)C(=O)N(C)[C@@H](C3CCCC3)C(=O)N(C)[C@H](C(=O)N(C)CCOC)CC(=O)N(C)[C@@H](CC3CC3)C(=O)N[C@@H]([C@@H](C)CC)C(=O)N(C)CC(=O)N(C)[C@H]3C/C=C\CCN(C3=O)[C@@H](Cc3ccc(C(F)(F)F)cc3)C(=O)N(C)CC(=O)N[C@@H](CCc3cc(F)c(C(F)(F)F)c(F)c3)C(=O)N2C1` [PP1318] the “NRAS/KRAS (ratio of KD value for NRAS to KD value for KRAS)” value ([1]; KD ratio class) was “A (a compound having 10 or more and less than 20 is denoted as A)”, the “HRAS/KRAS (ratio of KD value for HRAS to KD value for KRAS)” value ([2]; KD ratio class) was “A (a compound having 10 or more and less than 20 is denoted as A)” and the Kd [3, 5] was 0.091 nM.

With `CC[C@H](C)[C@@H]1NC(=O)[C@H](CC(C)C)N(C)C(=O)C[C@@H](C(=O)N2CCOCC2)N(C)C(=O)[C@H](C2CCCC2)N(C)C(=O)C2(CCCC2)NC(=O)[C@@H]2CCCN2C(=O)[C@H](CCc2cc(F)c(C(F)(F)F)c(F)c2)NC(=O)CN(C)C(=O)[C@H](Cc2ccc(C(F)(F)F)cc2)N2CCCCC[C@@H](C2=O)N(C)C(=O)[C@H](C)NC1=O` [PP0481] the “NRAS/KRAS (ratio of KD value with respect to NRAS to KD value with respect to KRAS)” value [1] was “B (a compound having 3 or more and less than 10 is denoted as B)”, the “HRAS/KRAS (ratio of KD value with respect to HRAS to KD value with respect to KRAS)” value [2] was “B (a compound having 3 or more and less than 10 is denoted as B)” and the Kd [3, 4] was 850 nM.

For `CCC[C@H]1C(=O)N[C@@H]([C@@H](C)CC)C(=O)N(C)CC(=O)N(C)[C@H]2C/C=C\CCN(C2=O)[C@@H](Cc2ccc(C(F)(F)F)cc2)C(=O)N(C)CC(=O)N[C@@H](CCc2ccc(C(F)(F)F)c(OC)c2)C(=O)N2CCCC[C@H]2C(=O)NC2(CC(C)(C)C2)C(=O)N(C)[C@@H](C(CC)CC)C(=O)N(C)[C@H](C(=O)N(C)C)CC(=O)N1C` [PP2934], the “NRAS/KRAS (ratio of KD value with respect to GDP-bound NRAS wild-type protein to KD value with respect to KRAS)” value [1] was “AA (a compound having 20 or more is denoted as AA)”, the “HRAS/KRAS (ratio of KD value with respect to GDP-bound HRAS wild-type protein to KD value with respect to KRAS)” value [2] was “A (a compound having 10 or more and less than 20 is denoted as A)” and the Kd [3, 4] was 2 nM.

`CC[C@H](C)[C@@H]1NC(=O)[C@H](CC2CC2)N(C)C(=O)C[C@@H](C(=O)N2CCCC2)N(C)C(=O)[C@H](C2CCCC2)N(C)C(=O)C2(CCC2)NC(=O)[C@@H]2C[C@H](C)CN2C(=O)[C@H](CCc2cc(F)c(C(F)(F)F)c(F)c2)NC(=O)CN(C)C(=O)[C@H](Cc2ccc(C(F)(F)F)cc2)N2CC/C=C\C[C@@H](C2=O)N(C)C(=O)CN(C)C1=O` [PP1510, (2S,8S,12S,14S,20S,23S,27S,30S,36S,38Z)-20-cyclopentyl-27-(cyclopropylmethyl)-8-[2-[3,5-difluoro-4-(trifluoromethyl)phenyl]ethyl]-4,12,19,22,26,32,35-heptamethyl-30-[(1S)-1-methylpropyl]-23-(pyrrolidine-1-carbonyl)-2-[[4-(trifluoromethyl)phenyl]methyl]spiro[1,4,7,10,16,19,22,26,29,32,35-undecazatricyclo[34.5.1.0^10,14]dotetracont-38-ene-17,1′-cyclobutane]-3,6,9,15,18,21,25,28,31,34,42-undecone] was tested, and the “NRAS/KRAS (ratio of KD value for NRAS to KD value for KRAS)” value ([1]; KD ratio class) was “AA (a compound having 20 or more is denoted as AA)”, the “HRAS/KRAS (ratio of KD value for HRAS to KD value for KRAS)” value ([2]; KD ratio class) was “A (a compound having 10 or more and less than 20 is denoted as A)” and the Kd [3, 5] was 0.11 nM.

For `CCC[C@H]1C(=O)N[C@@H]([C@@H](C)CC)C(=O)N(C)CC(=O)N(C)[C@H]2CCCCN(C2=O)[C@@H](Cc2ccc(C(F)(F)F)cc2)C(=O)N(C)CC(=O)N[C@@H](CCc2cc(F)c(C(F)(F)F)c(F)c2)C(=O)N2C[C@H](OCC)C[C@H]2C(=O)NC2(CCC2)C(=O)N(C)[C@@H](C2CCCC2)C(=O)N(C)[C@H](C(=O)N2CCOCC2)CC(=O)N1C` [PP0709], the “NRAS/KRAS (ratio of KD value with respect to NRAS to KD value with respect to KRAS)” value [1] was “C (A compound having a KD ratio of 0.1 or more and less than 3 is denoted as C)”, the “HRAS/KRAS (ratio of KD value with respect to HRAS to KD value with respect to KRAS)” value [2] was “B (a compound having 3 or more and less than 10 is denoted as B)” and the Kd [3, 4] was 0.03 nM.
